# Assay results from ChEMBL document CHEMBL3507680, “University of Dundee, Gates Library screen for HepG2 cell viability”.
# Test: Human HepG2 cell viability assay in 384 well format
# Format: toxicity, cell-based
# Design: dose 125 nL, time 70.5 hour; cytotoxicity at 70.5 h: concentration not given beside the values
# Conditions: HepG2 cells, read-out: Inhibition
row,Compound,cytotoxicity at 70.5 h [%]
1,CC1CN(Cc2noc(C3CC3)n2)CCN1Cc1nccn1C (configuration not stated),4.66
2,O=C1NCCCCC1Sc1ccc(F)c(F)c1 (configuration not stated),-13.1
3,O=C(NS(=O)(=O)c1cnn(-c2ccccc2F)c1)c1ccoc1,9.38
4,CCNC(=O)CN1CCc2c(Br)ccc(F)c2C1,5.62
5,Cc1cc(CN2CCC(C3CCN(CCc4ccccc4)CC3)C2)[nH]n1 (configuration not stated),-0.097
6,CCn1nc(C)c2nc(C(C)C)nc(N3CCCCC3)c21,-11.3
7,COc1ccc(OC)c([C@@H]2N[C@H](c3nccs3)Cc3ccsc32)c1,-11.6
8,Cc1cc2cc(CNC(=O)c3cnn4c3OCCC4)ccc2[nH]1,-1.4
9,O=C1NCCN1C1CCN(Cc2nc(-c3ccsc3)no2)CC1,32.4
10,Cc1ccc2cc(CNCCCO)c(=O)[nH]c2c1,-2.37
11,CC1CN(CC(=O)NCc2ccccn2)CCN1Cc1nccn1C (configuration not stated),-3.22
12,COCCNc1ncc(-c2onc(C)c2C)c(-c2ccco2)n1,-5.67
13,Cc1ccc(-c2n[nH]cc2CN(Cc2nccn2C)C(C)C)cc1C,-5.49
14,CN(C)Cc1nc(C(C)(C)NC(=O)c2ccnn2C)no1,8.69
15,CCOc1ccccc1CC(=O)N1C[C@@H](C(=O)O)[C@H](c2ccncc2)C1,37.4
16,CCOC(=O)c1ccc(S(=O)(=O)NCC(CC)N2CCCC2)cc1 (configuration not stated),-5.87
17,CC(=O)N1CCCN(C(=O)NC(C)Cn2ccnc2)CC1 (configuration not stated),-4.31
18,COc1ccc(C(=O)Nc2n[nH]c(C3CCCO3)n2)cc1 (configuration not stated),26.5
19,Cc1ccc(-c2ncc(C(=O)N3CCC[C@H](N)C3)c(O)n2)cc1,-6.29

row,Compound,cytotoxicity at 70.5 h [%]
1,Cn1cc(CN2CCC3(CC2)COC(COc2ccccn2)C3)cn1 (configuration not stated),-14.7
2,COCCN1CCC(c2nc3c([nH]2)CC(C)(C)CNC3=O)CC1,-4.63
3,CN1CCCC(c2ccnc(C(=O)NCC3CC3)c2)C1 (configuration not stated),-2.35
4,CN(Cc1cccnc1)[C@@H]1CN(C(=O)NC2CC2)[C@@H]2CCCO[C@H]12,-6.43
5,COc1ccc2c(c1)C1(CCN(Cc3cccnc3)CC1)N(C)CC2,-1.98
6,Cn1cnnc1C1CCCN(C(=O)NCc2ccc3c(c2)OCO3)C1 (configuration not stated),-0.469
7,CN(C)[C@@H]1CCN(C(=O)Cc2ccc(F)cc2)[C@H]1Cc1cnn(C)c1,-10.4
8,CC(=O)Cc1c(C)nn(-c2cncc(N)c2)c1C,-1.56
9,Cc1cccc(C2(C(=O)NCCCn3cccn3)CC2)c1,-5.49
10,CN(CCc1ccccn1)[C@@H]1CCN(c2cccc(C#N)n2)C[C@H]1O,0.836
11,COC(=O)C(c1cc(F)ccc1F)N(C)C(=O)c1ccnc(C)n1 (configuration not stated),1.49
12,Cc1cc(C(=O)N2CC[C@]3(C[C@@H](OCc4ccccn4)CO3)C2)c(C)o1,17.1
13,COc1ccnc(N2CCN(C(=O)CCc3nccs3)CC2)n1,-10.9
14,Cn1cccc1C(=O)N1CCCn2nc(CCC(=O)NC3CC3)cc2C1,9.42
15,N#Cc1csc(CNCCOc2ncccc2Cl)c1,8.52
16,CNC(=O)c1cccnc1NCCOc1ccc(CC#N)cc1,-0.53
17,CC(=O)N1CCCC1c1cc(N2CCN(C3CCCC3)CC2)cc(C)n1 (configuration not stated),-7.01
18,N#Cc1ccccc1N1CCCN(CC(=O)Nc2ccc(Cl)cn2)CC1,-2.38
19,Cc1nccc(N2CCC(Cc3cccc(C(=O)O)c3)CC2)n1,-6.88

row,Compound,cytotoxicity at 70.5 h [%]
1,Cc1ccc2nc(CN3CCCCC3C(=O)N3CCOCC3)cn2c1 (configuration not stated),7.36
2,CCn1cc2c(n1)C(COC)CN(Cc1ccccn1)C2 (configuration not stated),29.7
3,Cc1c(C)n(Cc2ccccn2)c2nc3c(c(N)c12)CCCC3,-14.4
4,COc1ccc(CC(=O)N2CCN(c3nccn3C)CC2)cc1,-1.27
5,Cc1[nH]c2ccc(C#N)cc2c1CCNc1ncnc2c1CCNCC2,-1.54
6,COC(=O)CN1CCN(c2cccc(C)c2)CC1,-2.66
7,O=C1CCC2(CCCN(C(=O)NCc3ccccc3)CC2)N1 (configuration not stated),-8.58
8,COCC(=O)N1CC[C@]2(O)CCN(C(=O)CCc3ccsc3)C[C@@H]2C1,-10.1
9,Cc1nc(C)n(CC2CCCN(Cc3nc(C)c(C)o3)C2)n1 (configuration not stated),13.2
10,O=C(NCC(F)(F)F)c1nnn(-c2ccccc2)c1C(F)(F)F,-4.56
11,Cc1ccc(S(=O)(=O)NC(=O)c2cc(S(C)(=O)=O)ccc2C)s1,-0.802
12,O=C1CC2(CCN(Cc3ccccn3)C2)CN1c1cncnc1 (configuration not stated),-16.1
13,CNS(=O)(=O)c1ccccc1N1CCN(C(=O)NC(C)C)CC1,-5.21
14,CN(CC(=O)N1CCN(CC(C)(C)O)CC1)c1ccc(Cl)cn1,-17.3
15,Cc1csc(CN(C)C(C)C(=O)N2CCc3ccccc3C2)n1 (configuration not stated),11.5
16,O=C(NCCCn1cncn1)c1ccc(-c2ccccc2)[nH]c1=O,-11.4
17,O=C(NCCCn1ccnc1)N1CCCC1c1cccs1 (configuration not stated),-2.86
18,COC(=O)N1CC2=CC(C)(C)COc3ccc(OC)c(c32)C1,1.21
19,COCCC(=O)N(C)Cc1nc(C(F)(F)F)cs1,-1.8
